The target of experiment [1] is A/Anhui/1/2013 (E2/S1) virus isolate neuraminidase (Influenza A virus (A/Anhui/1/2013(H7N9)), UniProt A0A024E3Q2). It counts as biochemical. Particulars: pH 6.5.
Experiment [2] shares this target. It counts as biochemical. Particulars: pH 5.1.
The target in experiment [3] is T1, Oseltamivir-sensitive A/Washington/01/2007 neuraminidase (Influenza A virus (H3N2), UniProt A7UPN3). Nature of the experiment: biochemical.
The target of experiment [4] is T1, Oseltamivir-sensitive A/Washington/01/2007 neuraminidase. It counts as biochemical. Particulars: pH 6.5.
The target of experiment [5] is T2, Oseltamivir-sensitive A/California/12/2012 neuraminidase (Influenza A virus (H1N1pdm09), UniProt R4SI91). It counts as biochemical. Particulars: pH 6.5.
Experiment [6] addresses T2, Oseltamivir-sensitive A/California/12/2012 neuraminidase. It counts as biochemical. Particulars: pH 5.1.
For another experiment, the system named is A/Shanghai/1/2013 virus. Particulars: cited from earlier work.

These results are taken from article PMC3810934 (Emerging Infectious Diseases, 2013).

Each structure is given as a SMILES string. Like-named read-outs stand apart in the source and are kept apart here.

On to `CO[C@@H]([C@@H]1OC(C(=O)O)=C[C@H](NC(=N)N)[C@H]1NC(C)=O)[C@H](O)CO` [Laninamivir, laninamivir], for which the IC50 in experiment [1] worked out at 0.46 nM; in experiment [2], 1.29 nM.
As to `CCC(CC)[C@H](NC(C)=O)[C@@H]1[C@H](O)[C@@H](C(=O)O)C[C@H]1N=C(N)N` [Peramivir, peramivir], the IC50 in experiment [1] (read-out: IC50) stood at 0.06 nM; in experiment [2] (read-out: IC50), 0.12 nM; in experiment [3] (pH 5.1, read-out: IC50), 0.1 nM; in experiment [4], 0.08 nM; in experiment [5], 0.06 nM; in experiment [6] it was 0.07 nM.
In the case of `CC(=O)N[C@H]1[C@H]([C@H](O)[C@H](O)CO)OC(C(=O)O)=C[C@@H]1N=C(N)N` [Zanamivir, zanamivir], the values for the IC50 in experiment [1], in experiment [2] and in experiment [3] were 0.33 nM, 1 nM and 0.45 nM, respectively. In addition, the “Susceptibility on the basis of NI assay data” value with A/Shanghai/1/2013 virus was “susceptible”.
